# Values of other authors, collected in patent publication US20220047541A1, “PHARMACEUTICAL COMPOSITIONS AND METHODS FOR TREATING PARKINSON'S DISEASE” (Pike Therapeutics, Inc., priority 2020, published 2022).
# What was measured:
# CB2 = CB2 (Homo sapiens, UniProt P34972); details: given as ×, fold or times
# Sequence of CB2 (P34972 whole entry, species assumed): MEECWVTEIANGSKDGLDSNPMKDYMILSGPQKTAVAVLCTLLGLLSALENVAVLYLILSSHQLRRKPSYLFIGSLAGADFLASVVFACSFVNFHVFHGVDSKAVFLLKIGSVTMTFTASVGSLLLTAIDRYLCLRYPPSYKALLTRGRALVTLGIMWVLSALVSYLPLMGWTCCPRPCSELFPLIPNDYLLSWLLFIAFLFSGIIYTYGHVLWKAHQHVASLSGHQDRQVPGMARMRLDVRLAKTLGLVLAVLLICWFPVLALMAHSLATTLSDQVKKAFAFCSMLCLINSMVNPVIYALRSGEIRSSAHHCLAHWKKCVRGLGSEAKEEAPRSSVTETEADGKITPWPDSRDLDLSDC
SMILES,solubility in water,selectivity for CB2 over CB1 (CB2)
"N[C@@H](Cc1ccc(O)c(O)c1)C(=O)O [Levodopa, L-3,4-dihydroxyphenylalanine (S)-2-amino-3-(3,4-dihydroxyphenyl)propanoic acid]",slightly soluble,
CCCn1c(C)c(C(=O)c2ccc(C)c3ccccc23)c2ccccc21 [JWH-148],,more than 8 fold
CCCCCCC(C)(C)c1cc(O)c2c(c1)oc(=O)c1ccc(OC)cc12 [AM-1710],,54 fold
CCCn1cc(C(=O)c2ccc(C)c3ccccc23)c2ccccc21 [JWH-120],,173 fold
"CCCCCCC(C)(C)c1cc(OC)c2c(c1)OC(C)(C)C1CCC(O)CC21 (stereo not drawn) [JWH-350, 11-nor-1-methoxy-3-(1′,1′-dimethylheptyl)-9α-hydroxyhexahydrocannabinol]",,33 fold
